From patent publication US10730889B2, “Amido spirocyclic amide and sulfonamide derivatives” (Forma TM, LLC, priority 2012, dated 2020) come the findings set out here.

pIC50: −log10 of the molar value.

This test has as its system A2780 cells. In words: In-vitro cell proliferation assay (SRB, 72 hours). Type of test: cell-based. As to conditions: Homo sapiens, A2780, 72 h, A2780 cells, 72 hours, SRB; read-out: Cell Proliferation (IC50).
Turning to `CC1(CC(=O)N2CCC3(CC2)CC3CNC(=O)c2cc3cnccc3[nH]2)COC1` (stereo not drawn) [Example 150, N-([6-[2-(3-methyloxetan-3-yl)acetyl]-6-azaspiro[2.5]octan-1-yl]methyl)-1H-pyrrolo[3,2-c]pyridine-2-carboxamide], the pIC50 was 6.58. Regarding `N#Cc1ccccc1CC(=O)N1CCC2(CC1)CC2CNC(=O)c1cc2ccncc2o1` (stereo not drawn) [Example 152, N-[[6-[2-(2-cyanophenyl)acetyl]-6-azaspiro[2.5]octan-2-yl]methyl]furo[2,3-c]pyridine-2-carboxamide], the pIC50 is 6.58. To `COCCC(=O)N1CCC2(CC1)CC2CNC(=O)c1cc2ccncc2o1` (stereo not drawn) [Example 153, N-[[6-(3-methoxypropanoyl)-6-azaspiro[2.5]octan-2-yl]methyl]furo[2,3-c]pyridine-2-carboxamide] belongs 5.70; to `O=C(NCC1CC12CCN(C(=O)Cc1ccc(S(=O)(=O)C(F)(F)F)cc1)CC2)c1cc2ccncc2o1` (stereo not drawn) [Example 154, N-[[6-[2-[4-(trifluoromethylsulfonyl)phenyl]acetyl]-6-azaspiro[2.5]octan-2-yl]methyl]furo[2,3-c]pyridine-2-carboxamide], 5.58.

In the case of `CC(=O)N(C)CCC(=O)N1CCC2(CC1)CC2CNC(=O)c1cc2ccncc2o1` (stereo not drawn) [Example 155, N-[[6-[3-[acetyl(methyl]amino]propanoyl]-6-azaspiro[2.5]octan-2-yl]methyl]furo[2,3-c]pyridine-2-carboxamide], the pIC50 was 5.70. With `N#Cc1ccc(NC(=O)N2CCC3(CC2)CC3CNC(=O)c2cc3ccncc3o2)cc1` (stereo not drawn) [Example 157, N-[[6-[(4-cyanophenyl)carbamoyl]-6-azaspiro[2.5]octan-2-yl)methyl]furo[2,3-c]pyridine-2-carboxamide] the figure was 5.70; with `Cc1cccc(CNC(=O)N2CCC3(CC2)CC3CNC(=O)c2cc3ccncc3o2)c1` (stereo not drawn) [Example 158, N-[[6-(m-tolylmethylcarbamoyl)-6-azaspiro[2.5]octan-2-yl]methyl]furo[2,3-c]pyridine-2-carboxamide], 5.70; with `Cc1ccc(NC(=O)N2CCC3(CC2)CC3CNC(=O)c2cc3ccncc3o2)cc1` (stereo not drawn) [Example 159, N-[[6-(p-tolylcarbamoyl)-6-azaspiro[2.5]octan-2-yl]methyl]furo[2,3-c]pyridine-2-carboxamide], 6.56. In the case of `O=C(NCC1CC12CCN(C(=O)NCc1ccccc1)CC2)c1cc2ccncc2o1` (stereo not drawn) [Example 160], the pIC50 is 5.70. As to `O=C(NCC1CC12CCN(C(=O)NCc1ccccc1F)CC2)c1cc2ccncc2o1` (stereo not drawn) [Example 161, N-[[6-[(2-fluorophenyl)methylcarbamoyl]-6-azaspiro[2.5]octan-2-yl]methyl]furo[2,3-c]pyridine-2-carboxamide], the pIC50 was 5.70.

As to `Cc1ccc(CNC(=O)N2CCC3(CC2)CC3CNC(=O)c2cc3ccncc3o2)cc1` (stereo not drawn) [Example 162, N-[[6-(p-tolylmethylcarbamoyl)-6-azaspiro[2.5]octan-2-yl]methyl]furo[2,3-c]pyridine-2-carboxamide], the pIC50 is 5.70. On to `O=C(NCC1CC12CCN(C(=O)NCc1ccc(F)cc1)CC2)c1cc2ccncc2o1` (stereo not drawn) [Example 163, N-[[6-[(4-fluorophenyl)methylcarbamoyl]-6-azaspiro[2.5]octan-2-yl]methyl]furo[2,3-c]pyridine-2-carboxamide], for which the pIC50 is 5.70. For the molecule `COc1ccccc1CNC(=O)N1CCC2(CC1)CC2CNC(=O)c1cc2ccncc2o1` (stereo not drawn) [Example 164, N-[[6-((2-methoxyphenyl)methylcarbamoyl]-6-azaspiro[2.5]octan-2-yl]methyl]furo[2,3-c]pyridine-2-carboxamide], the pIC50 was 5.81. For `COc1cccc(CNC(=O)N2CCC3(CC2)CC3CNC(=O)c2cc3ccncc3o2)c1` (stereo not drawn) [Example 165, N-[[6-[(3-methoxyphenyl)methylcarbamoyl]-6-azaspiro[2.5]octan-2-yl]methyl]furo[2,3-c]pyridine-2-carboxamide], the pIC50 was 5.70.

For the molecule `O=C(NCC1CC12CCN(C(=O)NCc1cccc(F)c1)CC2)c1cc2ccncc2o1` (stereo not drawn) [Example 166, N-[[6-[(3-fluorophenyl)methylcarbamoyl]-6-azaspiro[2.5]octan-2-yl]methyl]furo[2,3-c]pyridine-2-carboxamide], the pIC50 is 5.70. Regarding `COc1ccc(CNC(=O)N2CCC3(CC2)CC3CNC(=O)c2cc3ccncc3o2)cc1` (stereo not drawn) [Example 167, N-[[6-[(4-methoxyphenyl)methylcarbamoyl]-6-azaspiro[2.5]octan-2-yl]methyl]furo[2,3-c]pyridine-2-carboxamide], the pIC50 was 5.70.

On to `O=C(NCC1CC12CCN(C(=O)NCc1ccc(Cl)c(Cl)c1)CC2)c1cc2ccncc2o1` (stereo not drawn) [Example 168, N-[[6-[(3,4-dichlorophenyl)methylcarbamoyl]-6-azaspiro[2.5]octan-2-yl]methyl]furo[2,3-c]pyridine-2-carboxamide], for which the pIC50 is 5.70. As to `O=C(NCC1CC12CCN(C(=O)NC13CC4CC(CC(C4)C1)C3)CC2)c1cc2ccncc2o1` (stereo not drawn) [Example 169, N-[[6-(1-adamantylcarbamoyl)-6-azaspiro[2.5]octan-2-yl]methyl]furo[2,3-c]pyridine-2-carboxamide], the pIC50 was 7.56. For `O=C(NCC1CC12CCN(C(=O)NCc1ccc(Cl)cc1)CC2)c1cc2ccncc2o1` (stereo not drawn) [Example 170, N-[[6-[(4-chlorophenyl)methylcarbamoyl]-6-azaspiro[2.5]octan-2-yl]methyl]furo[2,3-c]pyridine-2-carboxamide], the pIC50 is 5.70.

With `O=C(NCC1CC12CCN(C(=O)NCc1ccccc1Cl)CC2)c1cc2ccncc2o1` (stereo not drawn) [Example 171, N-[[6-[(2-chlorophenyl)methylcarbamoyl]-6-azaspiro[2.5]octan-2-yl]methyl]furo[2,3-c]pyridine-2-carboxamide], the pIC50 is 5.70. With `CCNC(=O)N1CCC2(CC1)CC2CNC(=O)c1cc2ccncc2o1` (stereo not drawn) [Example 172, N-[[6-(ethylcarbamoyl)-6-azaspiro[2.5]octan-2-yl)methyl]furo[2,3-c]pyridine-2-carboxamide] the figure was 5.70; with `O=C(NCC1CC12CCN(C(=O)NCc1ccc(Cl)cc1Cl)CC2)c1cc2ccncc2o1` (stereo not drawn) [Example 173, N-[(6-[(2,4-dichlorophenyl)methylcarbamoyl]-6-azaspiro[2.5]octan-2-yl]methyl]furo[2,3-c]pyridine-2-carboxamide], 5.70. With `CC1(O)CC(CC(=O)N2CCC3(CC2)CC3CNC(=O)c2cc3ccncc3o2)C1` (stereo not drawn) [Example 174, N-([6-[2-(3-hydroxy-3methylcyclobutyl)acetyl]-6-azaspiro[2.5]octan-1-yl]methyl)furo[2,3-c]pyridine-2-carboxamide] the figure was 6.71; with `O=C(Cc1ccccn1)N1CCC2(CC1)CC2CNC(=O)N1Cc2ccncc2C1` (stereo not drawn) [Example 176, N-[[6-[2-(2-pyridyl)acetyl]-6-azaspiro[2.5]octan-2-yl]methyl] 1,3-dihydropyrrolo[3,4-c]pyridine-2-carboxamide], 7.47; with `O=C(Cc1cccnc1)N1CCC2(CC1)CC2CNC(=O)N1Cc2ccncc2C1` (stereo not drawn) [Example 177], 7.46. Take `N#Cc1cccc(CC(=O)N2CCC3(CC2)CC3CNC(=O)N2Cc3ccncc3C2)c1` (stereo not drawn) [Example 178, N-[[6-(2-(3-cyanophenyl)acetyl]-6-azaspiro[2.5]octan-2-yl]methyl]-1,3-dihydropyrrolo(3,4-c]pyridine-2-carboxamide]: the pIC50 is 7.49. `O=C(NCC1CC12CCN(C(=O)c1ccc(-n3cncn3)cc1)CC2)c1cc2ccncc2o1` (stereo not drawn) [Example 179, N-[[6-[4-(1,2,4-triazol-1-yl)benzoyl]-6-azaspiro[2.5]octan-2-yl]methyl]furo[2,3-c]pyridine-2-carboxamide]: the pIC50 was 7.60.

For the molecule `Cc1nccn1CC(=O)N1CCC2(CC1)CC2CNC(=O)c1cc2ccncc2o1` (stereo not drawn) [Example 180, N-[[6-[2-(2-methylimidazol-1-yl)acetyl]-6-azaspiro[2.5]octan-2-yl]methyl]furo[2,3-c]pyridine-2-carboxamide], the pIC50 was 5.61. For the molecule `Cc1nn(C)c(C)c1C(=O)N1CCC2(CC1)CC2CNC(=O)c1cc2ccncc2o1` (stereo not drawn) [Example 181, N-[[6-(1,3,5-trimethylpyrazole-4-carbonyl)-6-azaspiro[2.5]octan-2-yl]methyl]furo[2,3-c]pyridine-2-carboxamide], the pIC50 is 8.48. As for `CC(C)(C)NC(=O)N1CCC2(CC1)CC2CNC(=O)c1cc2ccncc2o1` (stereo not drawn) [Example 182, N-[[6-(tert-butylcarbamoyl)-6-azaspiro[2.5]octan-2-yl]methyl]furo[2,3-c]pyndine-2-carboxamide], the pIC50 was 5.70. Consider `CC(C)NC(=O)N1CCC2(CC1)CC2CNC(=O)c1cc2ccncc2o1` (stereo not drawn) [Example 183, N-[[6-(isopropylcarbamoyl)-6-azaspiro[2.5]octan-2-yl]methyl]furo[2,3-c]pyridine-2-carboxamide], for which the pIC50 was 5.70. For `O=C(NCC1CC12CCN(C(=O)NCC1CCCCC1)CC2)c1cc2ccncc2o1` (stereo not drawn) [Example 184, N-[[6-(cyclohexylmethylcarbamoyl)-6-azaspiro[2.5]octan-2-yl]methyl]furo[2,3-c]pyridine-2-carboxamide], the pIC50 was 5.70.

Take `CCCNC(=O)N1CCC2(CC1)CC2CNC(=O)c1cc2ccncc2o1` (stereo not drawn) [Example 185, N-[[6-(propylcarbamoyl)-6-azaspiro[2.5]octan-2-yl]methyl]furo[2,3-c]pyridine-2-carboxamide]: the pIC50 is 5.70.

Regarding `O=C(NCC1CC12CCN(C(=O)NC1CCCCC1)CC2)c1cc2ccncc2o1` (stereo not drawn) [Example 186, N-[[6-(cyclohexylcarbamoyl)-6-azaspiro[2.5]octan-2-yl)methyl]furo[2,3-c]pyridine-2-carboxamide], the pIC50 is 6.14.

On to `O=C(NCC1CC12CCN(C(=O)Nc1ccccc1)CC2)c1cc2ccncc2o1` (stereo not drawn) [Example 187, N-[[6-(phenylcarbamoyl)-6-azaspiro[2.5]octan-2-yl]methyl]furo[2,3-c]pyridine-2-carboxamide], for which the pIC50 was 5.61. `CC(C)N1CCC(CC(=O)N2CCC3(CC2)CC3CNC(=O)N2Cc3ccncc3C2)CC1` (stereo not drawn) [Example 188, N-[[6-[2-(1-isopropyl-4-piperidyl)acetyl]-6-azaspiro[2.5]octan-2-yl]methyl]-1,3-dihydropyrrolo[3,4-c]pyridine-2-carboxamide]: the pIC50 is 7.34.
